Experimental data taken from patent US20230081390A1, “INHIBITORS OF RAF KINASES” (Kinnate Biopharma Inc., priority 2019, published 2023).

molecular target: human RAF1 (Homo sapiens, UniProt P04049); test: Protein kinase assay (33P-ATP filter binding), human RAF1, 10-dose IC50; assay type: biochemical; details: MEK1 (K97R) substrate 3 micromolar, ATP 10 micromolar, read-out: RAF-1 IC50
Procedure: In brief, for each reaction, kinase and substrate were mixed in a buffer containing 20 mM HEPES (pH 7.5), 10 mM MgCl2, 1 mM EGTA, 0.02% Brij35, 0.02 mg/mL BSA, 0.1 mM Na3VO4, 2 mM DTT, and […]. All compounds were solubilized in DMSO. Compounds were then added to each reaction mixture via acoustic dispense using an ECHO 550 nanoliter dispenser. For human RAF1 testing, human MEK1 (K97R) was used as a substrate at a concentration of 3 micromolar, with a final ATP concentration of 10 micromolar. […] Reactions were carried out at room temperature for 2 hr and spotted onto P81 ion exchange cellulose chromatography paper (Reaction Biology). […] The percent remaining kinase activity relative to a vehicle-containing (DMSO) kinase reaction was calculated for each kinase/inhibitor pair. IC50 values were calculated using Prism 5 (GraphPad).

Chain of human RAF1 (P04049 whole entry): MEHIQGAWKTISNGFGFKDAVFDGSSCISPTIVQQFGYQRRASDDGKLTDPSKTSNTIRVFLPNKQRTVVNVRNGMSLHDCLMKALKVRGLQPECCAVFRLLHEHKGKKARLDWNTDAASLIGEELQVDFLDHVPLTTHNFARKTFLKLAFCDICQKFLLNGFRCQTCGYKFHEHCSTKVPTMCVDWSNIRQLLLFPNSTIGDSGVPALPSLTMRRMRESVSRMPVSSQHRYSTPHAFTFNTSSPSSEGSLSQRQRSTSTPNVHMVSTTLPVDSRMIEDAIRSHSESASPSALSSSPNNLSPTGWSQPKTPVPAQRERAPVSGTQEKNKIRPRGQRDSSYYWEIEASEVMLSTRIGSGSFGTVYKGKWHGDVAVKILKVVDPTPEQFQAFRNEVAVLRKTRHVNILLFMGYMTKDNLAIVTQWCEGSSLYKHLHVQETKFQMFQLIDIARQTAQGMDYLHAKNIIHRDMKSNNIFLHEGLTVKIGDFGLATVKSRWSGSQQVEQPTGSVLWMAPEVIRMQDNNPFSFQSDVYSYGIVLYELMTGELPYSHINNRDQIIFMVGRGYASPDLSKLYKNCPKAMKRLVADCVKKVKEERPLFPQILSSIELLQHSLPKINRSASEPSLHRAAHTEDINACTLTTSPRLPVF

Row | SMILES | IC50
1 | Cc1cc(F)c(NC(=O)N2CC3CCC3(C(F)(F)F)C2)cc1-c1cc(OCCO)nc(N2CCOCC2)c1 (single isomer, unassigned) [Example 82, N-[2-fluoro-5-[2-(2-hydroxyethoxy)-6-(morpholin-4-yl)pyridin-4-yl]-4-methylphenyl]-1-(trifluoromethyl)-3-azabicyclo[3.2.0]heptane-3-carboxamide] | < 0.01 µM
2 | Cc1cc(F)c(NC(=O)N2CC3CCC3(C(F)(F)F)C2)cc1-c1cc(OCCO)nc(N2CCOCC2)c1 (single isomer, unassigned) [Example 83, N-[2-fluoro-5-[2-(2-hydroxyethoxy)-6-(morpholin-4-yl)pyridin-4-yl]-4-methylphenyl]-1-(trifluoromethyl)-3-azabicyclo[3.2.0]heptane-3-carboxamide] | < 0.01 µM
3 | Cc1cc(F)c(NC(=O)N2CC[C@@H](C(F)(F)C(F)(F)F)C2)cc1-c1cc(OCCO)nc(N2CCOCC2)c1 (single isomer, unassigned) [Example 84] | < 0.01 µM
4 | Cc1cc(F)c(NC(=O)N2CCC(C(F)(F)C(F)(F)F)C2)cc1-c1cc(OCCO)nc(N2CCOCC2)c1 (single isomer, unassigned) [Example 85] | < 0.01 µM
5 | Cc1cc(F)c(NC(=O)N2CCC3(CCC3(F)F)C2)cc1-c1cc(OCCO)nc(N2CCOCC2)c1 (single isomer, unassigned) [Example 90, 1,1-difluoro-N-[2-fluoro-5-[2-(2-hydroxyethoxy)-6-(morpholin-4-yl)pyridin-4-yl]-4-methylphenyl]-6-azaspiro[3.4]octane-6-carboxamide] | < 0.01 µM
6 | Cc1cc(F)c(NC(=O)N2CCC3(CCC3(F)F)C2)cc1-c1cc(OCCO)nc(N2CCOCC2)c1 (single isomer, unassigned) [Example 91, 1,1-difluoro-N-[2-fluoro-5-[2-(2-hydroxyethoxy)-6-(morpholin-4-yl)pyridin-4-yl]-4-methylphenyl]-6-azaspiro[3.4]octane-6-carboxamide] | < 0.01 µM
7 | Cc1cc(F)c(NC(=O)N2CCC(C(C)C(F)(F)F)C2)cc1-c1cc(OCCO)nc(N2CCOCC2)c1 (single isomer, unassigned) [Example 100, N-[2-fluoro-5-[2-(2-hydroxyethoxy)-6-(morpholin-4-yl)pyridin-4-yl]-4-methylphenyl]-3-(1,1,1-trifluoropropan-2-yl)pyrrolidine-1-carboxamide] | < 0.01 µM
8 | Cc1cc(F)c(NC(=O)N2CCC(C(C)C(F)(F)F)C2)cc1-c1cc(OCCO)nc(N2CCOCC2)c1 (single isomer, unassigned) [Example 101, N-[2-fluoro-5-[2-(2-hydroxyethoxy)-6-(morpholin-4-yl)pyridin-4-yl]-4-methylphenyl]-3-(1,1,1-trifluoropropan-2-yl)pyrrolidine-1-carboxamide] | < 0.01 µM
9 | Cc1cc(F)c(NC(=O)N2CCC(C(C)C(F)(F)F)C2)cc1-c1cc(OCCO)nc(N2CCOCC2)c1 (single isomer, unassigned) [Example 102, N-[2-fluoro-5-[2-(2-hydroxyethoxy)-6-(morpholin-4-yl)pyridin-4-yl]-4-methylphenyl]-3-(1,1,1-trifluoropropan-2-yl)pyrrolidine-1-carboxamide] | < 0.01 µM
10 | Cc1cc(F)c(NC(=O)N2CCC(C(C)C(F)(F)F)C2)cc1-c1cc(OCCO)nc(N2CCOCC2)c1 (single isomer, unassigned) [Example 103, N-[2-fluoro-5-[2-(2-hydroxyethoxy)-6-(morpholin-4-yl)pyridin-4-yl]-4-methylphenyl]-3-(1,1,1-trifluoropropan-2-yl)pyrrolidine-1-carboxamide] | < 0.01 µM
11 | Cc1cc(F)c(NC(=O)N2CC[C@]3(C2)CC(F)(F)C3(F)F)cc1-c1cc(OCCO)nc(N2CCOCC2)c1 (single isomer, unassigned) [Example 105] | < 0.01 µM
12 | Cc1cc(F)c(NC(=O)N2CC[C@@]3(C2)CC(F)(F)C3(F)F)cc1-c1cc(OCCO)nc(N2CCOCC2)c1 (single isomer, unassigned) [Example 106] | < 0.01 µM
